In patent US20250129070A1, “BIFUNCTIONAL ANDROGEN RECEPTOR COMPOUNDS” (priority 2023, published 2025):
pEC50, pIC50: −log10 of the molar value.

Experiments:
VCaP cells = experiment: VCaP growth inhibition assay; type: cell-based; settings: 30 pM R1881, 9 days, CTG
Procedure, shortened: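 Growth read by CTG luminescence after 9-day exposure to compound (final 100 nM–10 fM, 1:5 steps) plus 30 pM R1881, in phenol red-free DMEM with 5% CSS. Cells pre-incubated 72 h before dosing; IC50 by nonlinear 4-parameter regression.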

AR / CBP ternary complex = experiment: Ternary complex formation assay (sandwich ELISA, AR capture / CBP detection) in VCaP cell lysates; type: cell-based; settings: 1.5 hours treatment, sandwich ELISA (AR capture, CBP or p300 detection)
Procedure, shortened: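 Anti-AR (AR 441)-coated plates capture AR from lysates of VCaP cells grown ≥3 days at 50K/well in 5% charcoal-stripped FBS, dosed with bifunctional for 1.5 h and lysed 30 min at 4 °C. Co-captured CBP/p300 is probed with rabbit mAb and HRP anti-rabbit, then QuantaRed fluorescence (570/585) is read at 0, 5 and 15 min.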

pIC50 (VCaP cells) | pEC50 (AR / CBP ternary complex) | SMILES
9.00 to 10.00 | < 7.00 | Cn1cc(-c2cc3cccc(-c4cc(C5=CCN(CC6CCN(c7ncc(C(=O)NC8C(C)(C)C(Oc9ccc(C#N)c(Cl)c9)C8(C)C)cn7)CC6)CC5)c5c(c4)n(C)c(=O)n5C)c3cn2)cn1 (stereo not drawn) [Compound 243, N-[3-(3-chloro-4-cyano-phenoxy)-2,2,4,4-tetramethyl-cyclobutyl]-2-[4-[[4-[1,3-dimethyl-6-[3-(1-methylpyrazol-4-yl)-8-isoquinolyl]-2-oxo-benzimidazol-4-yl]-3,6-dihydro-2H-pyridin-1-yl]methyl]-1-piperidyl]pyrimidine-5-carboxamide]
9.00 to 10.00 | > 9.00 | C[C@@H]1CC(=O)Nc2cccc(-c3ccc4c(c3)c(-c3cnn(C)c3)nn4CCN3CCN(c4ncc(C(=O)NC5C(C)(C)C(Oc6ccc(C#N)c(Cl)c6)C5(C)C)cn4)CC3)c2N1 (stereo partly drawn) [Compound 56, N-[3-(3-chloro-4-cyano-phenoxy)-2,2,4,4-tetramethyl-cyclobutyl]-2-[4-[2-[5-[(4R)-4-methyl-2-oxo-1,3,4,5-tetrahydro-1,5-benzodiazepin-6-yl]-3-(1-methylpyrazol-4-yl)indazol-1-yl]ethyl]piperazin-1-yl]pyrimidine-5-carboxamide]
9.00 to 10.00 | > 9.00 | CC(=O)N1CCc2c(c(N3CCCc4cc(-c5cnn(C)c5)c(C)cc43)nn2C2CCN(CC3CCN(c4ncc(C(=O)NC5C(C)(C)C(Oc6ccc(C#N)c(Cl)c6)C5(C)C)cn4)CC3)CC2)C1 (stereo not drawn) [Compound 26, 2-[4-[[4-[5-acetyl-3-[7-methyl-6-(1-methylpyrazol-4-yl)-3,4-dihydro-2H-quinolin-1-yl]-6,7-dihydro-4H-pyrazolo[4,3-c]pyridin-1-yl]-1-piperidyl]methyl]-1-piperidyl]-N-[3-(3-chloro-4-cyano-phenoxy)-2,2,4,4-tetramethyl-cyclobutyl]pyrimidine-5-carboxamide]
9.00 to 10.00 | > 9.00 | COc1cc(OC2C(C)(C)C(NC(=O)c3ccc(N4CCC(CCc5ccc(-c6cc7cccc(-c8nn(C9CCOCC9)c9c8CN(C(C)=O)CC9)c7cn6)cn5)CC4)cc3)C2(C)C)ccc1C#N (stereo not drawn) [Compound 245, 4-[4-[2-[5-[8-(5-acetyl-1-tetrahydropyran-4-yl-6,7-dihydro-4H-pyrazolo[4,3-c]pyridin-3-yl)-3-isoquinolyl]-2-pyridyl]ethyl]-1-piperidyl]-N-[3-(4-cyano-3-methoxy-phenoxy)-2,2,4,4-tetramethyl-cyclobutyl]benzamide]
9.00 to 10.00 | > 9.00 | CC(=O)N1CCc2c(c(N3CCCc4cc(-c5cnn(C)c5)c(C(F)F)cc43)nn2C2CCN([C@H]3CCN(c4ncc(C(=O)NC5C(C)(C)C(Oc6ccc(C#N)c(Cl)c6)C5(C)C)cn4)C3)CC2)C1 (stereo partly drawn) [Compound 334, 2-[(3S)-3-[4-[5-acetyl-3-[7-(difluoromethyl)-6-(1-methylpyrazol-4-yl)-3,4-dihydro-2H-quinolin-1-yl]-6,7-dihydro-4H-pyrazolo[4,3-c]pyridin-1-yl]-1-piperidyl]pyrrolidin-1-yl]-N-[3-(3-chloro-4-cyano-phenoxy)-2,2,4,4-tetramethyl-cyclobutyl]pyrimidine-5-carboxamide]
9.00 to 10.00 | > 9.00 | COc1cc(OC2C(C)(C)C(NC(=O)c3ccc(C#CC4CC(N5CCC(n6nc(N7CCCc8cc(-c9cnn(C)c9)c(C(F)F)cc87)c7c6CCN(C(C)=O)C7)CC5)C4)cc3)C2(C)C)ccc1C#N (stereo not drawn) [Compound 294, 4-[2-[3-[4-[5-acetyl-3-[7-(difluoromethyl)-6-(1-methylpyrazol-4-yl)-3,4-dihydro-2H-quinolin-1-yl]-6,7-dihydro-4H-pyrazolo[4,3-c]pyridin-1-yl]-1-piperidyl]cyclobutyl]ethynyl]-N-[3-(4-cyano-3-methoxy-phenoxy)-2,2,4,4-tetramethyl-cyclobutyl]benzamide]
≥ 10.00 | > 9.00 | CC(=O)N1CCc2c(c(N3CCCc4cc(-c5cnn(C)c5)c(C(F)F)cc43)nn2C2CCC(OC3CCN(c4ncc(C(=O)NC5C(C)(C)C(Oc6ccc(C#N)c(Cl)c6)C5(C)C)cn4)CC3)CC2)C1 (stereo not drawn) [Compound 339, 2-[4-[4-[5-acetyl-3-[7-(difluoromethyl)-6-(1-methylpyrazol-4-yl)-3,4-dihydro-2H-quinolin-1-yl]-6,7-dihydro-4H-pyrazolo[4,3-c]pyridin-1-yl]cyclohexoxy]-1-piperidyl]-N-[3-(3-chloro-4-cyano-phenoxy)-2,2,4,4-tetramethyl-cyclobutyl]pyrimidine-5-carboxamide]
9.00 to 10.00 | 8.00 to 9.00 | CC(=O)N1CCc2c(c(N3CCCc4cc(-c5cnn(C)c5)c(C(F)F)cc43)nn2C2CCN(c3ncc(C(=O)NC4C(C)(C)C(Oc5ccc(C#N)c(Cl)c5)C4(C)C)cn3)CC2)C1 (stereo not drawn) [Compound 95, 2-[4-[5-acetyl-3-[7-(difluoromethyl)-6-(1-methylpyrazol-4-yl)-3,4-dihydro-2H-quinolin-1-yl]-6,7-dihydro-4H-pyrazolo[4,3-c]pyridin-1-yl]-1-piperidyl]-N-[3-(3-chloro-4-cyano-phenoxy)-2,2,4,4-tetramethyl-cyclobutyl]pyrimidine-5-carboxamide]
< 7.00 | < 7.00 | CC(=O)N1CCc2c(c(N3CCCc4cc(-c5cnn(C)c5)c(C(F)F)cc43)nn2C2CCN(CCc3ncc(C(=O)NC4C(C)(C)C(Oc5ccc(C#N)c(Cl)c5)C4(C)C)cn3)CC2)C1 (stereo not drawn) [Compound 92, 2-[2-[4-[5-acetyl-3-[7-(difluoromethyl)-6-(1-methylpyrazol-4-yl)-3,4-dihydro-2H-quinolin-1-yl]-6,7-dihydro-4H-pyrazolo[4,3-c]pyridin-1-yl]-1-piperidyl]ethyl]-N-[3-(3-chloro-4-cyano-phenoxy)-2,2,4,4-tetramethyl-cyclobutyl]pyrimidine-5-carboxamide]
≥ 10.00 | > 9.00 | COc1cc(OC2C(C)(C)C(NC(=O)c3ccc(N4CC5(CCN(C6CCC(n7nc(N8CCCc9cc(-c%10cnn(C)c%10)c(C(F)F)cc98)c8c7CCN(C(C)=O)C8)CC6)CC5)C4)cc3)C2(C)C)ccc1C#N (stereo not drawn) [Compound 288, 4-[7-[4-[5-acetyl-3-[7-(difluoromethyl)-6-(1-methylpyrazol-4-yl)-3,4-dihydro-2H-quinolin-1-yl]-6,7-dihydro-4H-pyrazolo[4,3-c]pyridin-1-yl]cyclohexyl]-2,7-diazaspiro[3.5]nonan-2-yl]-N-[3-(4-cyano-3-methoxy-phenoxy)-2,2,4,4-tetramethyl-cyclobutyl]benzamide]
9.00 to 10.00 | > 9.00 | CC(=O)N1CCc2c(c(N3CCCc4cc(-c5cnn(C)c5)c(C(F)F)cc43)nn2C2CCN(CC#CCCc3ncc(C(=O)NC4C(C)(C)C(Oc5ccc(C#N)c(Cl)c5)C4(C)C)cn3)CC2)C1 (stereo not drawn) [Compound 18, 2-[5-[4-[5-acetyl-3-[7-(difluoromethyl)-6-(1-methylpyrazol-4-yl)-3,4-dihydro-2H-quinolin-1-yl]-6,7-dihydro-4H-pyrazolo[4,3-c]pyridin-1-yl]-1-piperidyl]pent-3-ynyl]-N-[3-(3-chloro-4-cyano-phenoxy)-2,2,4,4-tetramethyl-cyclobutyl]pyrimidine-5-carboxamide]
9.00 to 10.00 | > 9.00 | C[C@@H]1CC(=O)Nc2cccc(-c3ccc4c(c3)c(-c3cnn(C)c3)nn4CCCN(C)c3ncc(C(=O)NC4C(C)(C)C(Oc5ccc(C#N)c(Cl)c5)C4(C)C)cn3)c2N1 (stereo partly drawn) [Compound 50, N-[3-(3-chloro-4-cyano-phenoxy)-2,2,4,4-tetramethyl-cyclobutyl]-2-[methyl-[3-[5-[(4R)-4-methyl-2-oxo-1,3,4,5-tetrahydro-1,5-benzodiazepin-6-yl]-3-(1-methylpyrazol-4-yl)indazol-1-yl]propyl]amino]pyrimidine-5-carboxamide]
9.00 to 10.00 | > 9.00 | CC(=O)N1CCc2c(c(N3CCCc4cc(-c5cnn(C)c5)c(C(F)F)cc43)nn2C2CCN(CCOc3ncc(C(=O)NC4C(C)(C)C(Oc5ccc(C#N)c(Cl)c5)C4(C)C)cn3)CC2)C1 (stereo not drawn) [Compound 89, 2-[2-[4-[5-acetyl-3-[7-(difluoromethyl)-6-(1-methylpyrazol-4-yl)-3,4-dihydro-2H-quinolin-1-yl]-6,7-dihydro-4H-pyrazolo[4,3-c]pyridin-1-yl]-1-piperidyl]ethoxy]-N-[3-(3-chloro-4-cyano-phenoxy)-2,2,4,4-tetramethyl-cyclobutyl]pyrimidine-5-carboxamide]
< 7.00 | 8.00 to 9.00 | Cn1c(=O)n(C)c2cc(N3CCCc4cc(-c5ccc(CCC6CCN(c7ncc(C(=O)NC8C(C)(C)C(Oc9ccc(C#N)c(Cl)c9)C8(C)C)cn7)CC6)nc5)c(C(F)F)cc43)ccc21 (stereo not drawn) [Compound 233, N-[3-(3-chloro-4-cyano-phenoxy)-2,2,4,4-tetramethyl-cyclobutyl]-2-[4-[2-[5-[7-(difluoromethyl)-1-(1,3-dimethyl-2-oxo-benzimidazol-5-yl)-3,4-dihydro-2H-quinolin-6-yl]-2-pyridyl]ethyl]-1-piperidyl]pyrimidine-5-carboxamide]
7.00 to 9.00 | 8.00 to 9.00 | CC(=O)N1CCc2c(c(N3CCCc4cc(-c5cnn(C)c5)c(C(F)F)cc43)nn2C2CCC(C3CCC4(CC3)CN(c3ncc(C(=O)NC5C(C)(C)C(Oc6ccc(C#N)c(Cl)c6)C5(C)C)cn3)C4)CC2)C1 (stereo not drawn) [Compound 377, 2-[7-[4-[5-acetyl-3-[7-(difluoromethyl)-6-(1-methylpyrazol-4-yl)-3,4-dihydro-2H-quinolin-1-yl]-6,7-dihydro-4H-pyrazolo[4,3-c]pyridin-1-yl]cyclohexyl]-2-azaspiro[3.5]nonan-2-yl]-N-[3-(3-chloro-4-cyano-phenoxy)-2,2,4,4-tetramethyl-cyclobutyl]pyrimidine-5-carboxamide]
